Experimental data published in patent US6479232B1, “Human xenografts for microbicide testing and anatomical modeling” (The Pennsylvania State University, priority 1999, dated 2002).
Values belong to the molecule of their own block, whether it stands above or below them.

Key:
[1] = set-up: species or system mice; settings: mouse, in vivo
Text: While it is not intended the present invention be limited to any specific formulation or dimension of silastic tubing, in one embodiment said silastic tubing was fabricated according to the following method. Tubing (0.078 in. inner diameter by 0.125 in. outer diameter; Dow Corning, Midland, Mich.) was filled with 17β-estradiol (1,3,5[10]-Estratriene-3, 17β) (Sigma Chemical Company, St. Louis, Mo.) mixed 1:3 (w/w) with silastic 382 medical grade elastomer (Dow Coming, St. Louis, Mo.). The mixture was allowed to dry and the tubing cut, in one embodiment, to a size (approximately 2×2×1 mm) which yielded a measurable circulating estradiol concentration of about 150-200 pg/ml in mice. It may be noted that this concentration of estradiol approximates the concentration of estrogen in women during the late follicular phase of the menstrual cycle.

HPV-11 = HPV-11 infection of human vaginal xenografts engrafted in immunocompromised mouse, virus pre-treated with candidate microbicide; assay type: in vivo; settings: HPV-11 treated with 0.05% SDS at 37° C. for 10 minutes, then placed in lumen of grafts engrafted ten days in immunocompromised mouse
Text: In this example, human vaginal xenografts were infected with HPV by inoculating the lumen of said vaginal xenografts, engrafted into a non-human host, with HPV-11 stock virus suspensions prepared according to the methods presented in Example 1. […] Furthermore, it is not necessary to traumatize the walls of said grafts during inoculation to precipitate infection.
In experimental samples, candidate microbicides are mixed with HPV in vitro prior to administration of said HPV/candidate microbicide mixture to the lumen of a vaginal xenograft engrafted into a non-human host. In an alternative experimental embodiment, candidate microbicides were pre-administered to the vaginal lumen, before delivery of a pathogenic agent, into the same lumen.
Xenografts are harvested at 70-90 days and are screened for signs of virus replication. Said screening protocols include quantification of morphologic transformations, viral DNA and RNA synthesis, and protein synthesis. In addition, cell-free extracts of infected xenografts are tested by bioassay for the presence of infectious virus using standard procedures for infection and transformation of vaginal epithelium. […]

[2] = tested on: human vaginal xenograft epithelium; assay: Survival and morphology of treated epithelium in the human vaginal xenograft; assay type: in vivo; settings: grafts receiving virus treated with 0.05% SDS
Method: In this example, human vaginal xenografts engrafted for ten days in the subcutaneous space of an immunocompromised mouse were infected with 10 u l of HPV-11, or HPV-11 that had been treated with 0.05% SDS at 37° C. for 10 minutes and then placed in the lumen of the grafts. At varying intervals, the infected human xenografts (or portions thereof) were surgically removed and examined.

HSV-2 = settings: in vitro; cited from earlier work
HIV-1 = settings: in vitro; cited from earlier work
HIV = settings: cited from earlier work
[3] = some people; cited from earlier work
HPVs = settings: cited from earlier work

circulating estradiol concentration [1]: 150 to 200 pg/mL
Molecule: C[C@]12CC[C@@H]3c4ccc(O)cc4CC[C@H]3[C@@H]1CC[C@@H]2O [17β-estradiol, 17β-estradiol (1,3,5[10]-Estratriene-3, 17β)]

Molecule: CCCCCCCCCCCCOS(=O)(=O)[O-].[Na+] [SDS, Sodium Dodecyl Sulfate]
prevention of virus infection (papillomatous transformation, virus DNA, virus protein) (HPV-11): effectively prevented virus infection
killing of treated epithelium in the vaginal xenograft [2]: did not kill the treated epithelium
morphology of tissues receiving treated virus [2]: stratified squamous epithelium with a morphology analogous to normal in situ vagina

Molecule: Nonoxynol-9 [N-9]
inactivation of HSV-2 (HSV-2): inactivates
inactivation of HIV-1 (HIV-1): inactivates
prevention of transmission of HIV to women (HIV): has not been proven to prevent transmission
irritation and ulceration [3]: may cause irritation and ulceration in some people
inactivation of / effectiveness against HPVs (HPVs): does not inactivate HPVs
